In patent publication US20140065237A1, “BIOLOGICALLY ACTIVE FOOD ADDITIVE FOR THE PROPHYLAXIS OF ERECTILE DYSFUNCTION IN MEN” (priority 2011, published 2014):

System: men with the diagnosis of erectile dysfunction and chronic prostatitis
Test: Clinical study of the BAA versus its single components (IIEF questionnaire, patient diaries), medical center "Secrets of Longevity"
Type: in vivo, human
Details: 2 tablets twice a day
Protocol: For the prevention of erectile dysfunction, the BAA in compound of L-Arginine—250 mg, drone brood—50 mg is taken by 2 tablets two times per day during one month out of meals. An interval during the intake is one month. […] The study included […] with the diagnosis of erectile dysfunction and chronic prostatitis, at the age from 30 to 50 years old (average age is 43). The duration of erectile dysfunction was from 6 months to 3 years (average duration is one year). A consent was received from all males participated in the study.
The experimental group (10 patients) was appointed to the proposed agent by 2 tablets twice a day in the morning hours. The 1-st experimental group (10 patients) was administered L-Arginine—250 mg, 2 tablets 2 times per day in the morning hours.
The 2-nd experimental group (10 patients) was administered drone brood—50 mg, 2 tablets 2 times per day in the morning hours. Patients' examination involved the checkup, collection of complains in accordance with the symptoms scale 1P88, and questionnaire of International Index of Erectile Function (IIEF), with consideration of objective factors: ultrasound investigation of prostate gland, clinical blood analysis, urine test, including the results of prostate gland palpation. Patients' examination took place before and after the agent prescription.
An efficiency of the claimed agent was evaluated by the change of IIEF's exponents. Within a week, prior to and during the course of agent intake, patients were keeping a diary of disease estimation, and they recorded the frequency and degree of sexual attraction, valuation of erection, frequency of sexual intercourse and their sensations in each case.

## N=C(N)NCCC[C@H](N)C(=O)O [L-Arginine]
  full sexual relations provided or not: not providing the full sexual relations
Irrespective of age and extent of sexual disorder
  effect starts within ... after taking of the agent: 2 to 3 h
10 patients per group
  erectile function: 20%
  feeling of orgasm, change of sensations: 20%
  number of ejaculations has grown up (share of cases): 20%
  overall satisfaction: 20%
  refractory period after the emission of seminal fluid has not changed (share of patients): 100%
  sexual intercourse satisfaction: 20%
  strengthening of sexual attraction (libido) recorded (share of cases): 100%
